Data: PMC8132994, “NanoFAST: structure-based design of a small fluorogen-activating protein with only 98 amino acids” (Chemical Science, 2021)

Molecular target: T1, FAST (Halorhodospira halophila, UniProt P16113, C69G/Y94W/T95M/F96I/D97P/Y98T/Q99S/M100R/T101G)
T1 construct: gene pyp; C-terminal His6 tag in NMR structure
T1 sequence (P16113 1-125 C69G/Y94W/T95M/F96I/D97P/Y98T/Q99S/M100R/T101G): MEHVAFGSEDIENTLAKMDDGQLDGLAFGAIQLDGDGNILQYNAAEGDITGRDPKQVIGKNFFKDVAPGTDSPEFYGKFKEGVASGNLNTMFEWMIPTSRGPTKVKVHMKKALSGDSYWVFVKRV
Experiment: solution NMR structure of the complex
Assay type: binding
Conditions: pH 7.0, 25 °C (1H NMR spectra); 13C/15N-labelled protein

**Q.** Which “solution NMR structure of the complex” value does the source give for `COc1cc(O)ccc1/C=C1N=C(/C=C/c2ccncc2)N(C)C\1=O` [N871b] here?
**A.** solved the spatial structure of the protein in complex with a promising ligand N871b
